Patent US9061016B2, “Aqueous solution comprising 3-quinuclidinones for the treatment hyperproliferative, autoimmune and heart disease” (APREA AB, priority 2010, dated 2015)

Assays:
AML MV-4-11 cells = assay: Hollow fiber in vivo mouse model; conditions: AML MV-4-11 cells in hollow fibers in mice; end of the experiment; by number
Protocol: Data is shown as mean±SEM (n=7-8).
Furthermore, in vivo experiments using the hollow fiber mouse model with 2-(hydroxymethyl)-2-(methoxymethyl)quinuclidin-3-one indicate that inventive compounds have a significant anti-leukemic effect. These experiments were performed using the hollow fiber in vivo mouse model (for a short description of the model, cf. the internet website http://dtp.nci.nih.gov/timeline/noflash/milestones/M13_hollow_fiber.htm).

KBM3 = assay: Effect of APR-246 on cell viability in cancer cell lines; format: cell-based; conditions: Acute Myelomonocytic Leukaemia KBM3, mean±SD
Protocol: (§1) The therapeutic activity of the compound 2-(hydroxymethyl)-2-(methoxymethyl)-quinuclidin-3-one (herein also referred to as APR-246) in the treatment of various cancers has been shown by in vitro assays using various cancer cell lines, cf. Table 2, wherein the IC50 of APR-246 in various types of cancerous cells is shown.
(§2) In Table 2, the results are shown as mean±SD; the IC50 values are calculated as the average of the IC50 values in the individual experiments.

H1299 = assay: as above; format: cell-based; conditions: Homo sapiens, NCI-H1299, Non-small cell lung carcinoma H1299, mean±SD
Protocol: as §1, §2

MDA-MB-231 = assay: as above; format: cell-based; conditions: Homo sapiens, Breast adenocarcinoma MDA-MB-231, mean±SD
Protocol: as §1, §2

22Rv1 = assay: as above; format: cell-based; conditions: Homo sapiens, Prostate carcinoma 22Rv1, mean±SD
Protocol: as §1, §2

SaOS-2-His273 = assay: as above; format: cell-based; conditions: Osteosarcoma SaOS-2-His273, mean±SD
Protocol: as §1, §2

PC3-175 = assay: as above; format: cell-based; conditions: Prostate adenocarcinoma PC3-175, mean±SD
Protocol: as §1, §2

PC3-puro = assay: as above; format: cell-based; conditions: Prostate adenocarcinoma PC3-puro, mean±SD
Protocol: as §1, §2

HT-29 = assay: as above; format: cell-based; conditions: Homo sapiens, Colorectal adenocarcinoma HT-29, mean±SD
Protocol: as §1, §2

SaOS-2 = assay: as above; format: cell-based; conditions: Homo sapiens, Osteosarcoma SaOS-2, mean±SD
Protocol: as §1, §2

BT-474 = assay: as above; format: cell-based; conditions: Homo sapiens, Breast ductal carcinoma BT-474, mean±SD
Protocol: as §1, §2

H1299-His175 = assay: as above; format: cell-based; conditions: Non-small cell lung carcinoma H1299-His175, mean±SD
Protocol: as §1, §2

MCF-7 = assay: as above; format: cell-based; conditions: Homo sapiens, MCF7, Breast adenocarcinoma MCF-7, mean±SD
Protocol: as §1, §2

U-2OS = assay: as above; format: cell-based; conditions: Homo sapiens, U2OS, Osteosarcoma U-2OS, mean±SD
Protocol: as §1, §2

[1] = Solubility and pH of APR-246 in water solutions; format: physicochemical
[2] = Stability studies of APR-246 in an aqueous system at different pH; format: physicochemical
Protocol: Several aqueous formulations of APR-246 and of the hydrochloric acid addition salt of APR-246 were prepared and tested for stability.
The stability increases with decreased pH. To establish a suitable pH for APR-246 with respect to stability, studies with the drug substance in different solutions at different pH were performed.
(§3) HPLC—Chromatography was performed on an Agilent 1100/1200 series HPLC system using a Purospher Star RP-18e, 5 μm (250×4.6) mm Column at 20° C. Sample temperature was set to 5° C. by a thermostat. Detection was accomplished by means of a UV/VIS DAD detector at 210 nm. The flow rate was set to 1.0 mL/min and the injection volume was 10 μL. The mobile phase used was a gradient of phosphate buffer (A) in acetonitrile (B): 0-5 min: 90% A, 5-20 min: 70% A, 20-35 min: 20% A, 35-45 min: 90% A. The calibration was obtained using pure APR-246 standard solutions freshly prepared prior to analyses. Data acquisition was performed electronically. The method has been validated.

[3] = HPLC-UV before and after autoclaving of APR-246 solution; format: physicochemical; conditions: autoclaving at 121° C.
Protocol: as §3, with “validated. The APR-246 drug product was a sterile concentrate for solution for infusion. The solution was sterilised by filtration according to Ph Eur standard method and aseptically filled in vials.” for “validated.”

[4] = Infusion bag compatibility study; format: physicochemical
Protocol: as §3, with “validated. This example summarizes the results of a compatibility study of the APR-246 drug product (150 mg/mL stock solution) in six infusion bags, to confirm physical and chemical stability of the drug product in the NaCl solution and compatibility with infusion bags and tubing device material. The drug product should be diluted with sterile 0.9% NaCl solution for infusion to a total volume of 500 ml before administration. The duration of the study covers a period beyond finalisation of infusion to the patient. The study was designed for a worst case lowest dose of 0.15 mg/mL and for a worst case highest dose of 24 mg/mL. […]” for “validated.”

[5] = Long term stability studies of APR-246 in aqueous system; format: physicochemical
Protocol: as §3, with “APR-246 stock solutions were manufactured at a concentration of about 150 mg/mL at pH 3.9. The finished product consisted of 21.5-22.0 mL of drug product aseptically filled into presterilized 50 mL glass vials. The manufacturing was in compliance with Good Manufacturing Practices regulations. […] HPLC—Chromatography” for “HPLC—Chromatography”

IC50 (KBM3): 7 ± 1 µM | IC50 (H1299): 16 ± 7 µM | IC50 (MDA-MB-231): 18 ± 5 µM | IC50 (22Rv1): 10 ± 0.6 µM | IC50 (SaOS-2-His273): 14 ± 3 µM | IC50 (PC3-175): 23 ± 7 µM | IC50 (PC3-puro): 27 ± 3 µM | IC50 (HT-29): 25 ± 5 µM | IC50 (SaOS-2): 27 ± 5 µM | IC50 (BT-474): 3 ± 2 µM | IC50 (H1299-His175): 14 ± 8 µM | IC50 (MCF-7): 15 ± 1 µM | IC50 (U-2OS): 15 ± 4 µM | solubility in water solutions [1]: readily soluble | stability of formulations with pH above 6 ([2]; pH above 6, model systems of Table 3): stability problems | degradation in aqueous solutions ([2]; room temperature and lower temperatures, regardless of the concentration profile): suffered from degradation | degradation on autoclaving the solution in the final container [3]: degradation was too pronounced | stability in infusion bag over the range of the study ([4]; high concentration): satisfactory stability | stability in infusion bag over the range of the study ([4]; low concentration): satisfactory stability | long term stability in the inventive formulation ([5]; formulated for clinical use, about 150 mg/mL, pH 3.9): stable | expected degradation on storage ([5]; over a period of two years, stored at 2-8° C.): no significant degradation
SMILES: COCC1(CO)C(=O)C2CCN1CC2 (stereo not shown) [APR-246, 2-(hydroxymethyl)-2-(methoxymethyl)quinuclidin-3-one]
net growth of leukemic cells (AML MV-4-11 cells): about −25%
